Measured values: US6362369B1, “Phthalic acid diamide derivatives fluorine-containing aniline compounds as starting material, agricultural and horticultural insecticides, and a method for application of the insecticides” (Nihon Nohyaku Co., Ltd., priority 1997, dated 2002)

Columns and labels:
[1] = tested on: diamondback moth (Plutella xylostella); assay: Insecticidal effect on diamondback moth (Test Example 1); format: in vivo; details: for Insecticidal effect, Test Example 1 / Insecticidal effect (Test Example 1), judged from mortality: diamondback moth; for Insecticidal effect (Test Example 1), judged from mortality: judged by the criterion of Test Example 1; for Insecticidal effect on diamondback moth (Test Example 1), judged grade: mortality judged according to the criterion shown in Test Example 1
Outline: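 Triplicate groups of 10 insects: eggs laid on Chinese cabbage seedling by adults, seedling immersed then air-dried, kept at 25° C. Day-6 hatch counts gave mortality, rated by criterion.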

[2] = tested on: rice leafroller (Cnaphalocrocis medinalis); assay: Insecticidal effect on rice leafroller (Test Example 3); format: in vivo; details: 500 ppm, 25° C., humidity 70%; for Insecticidal effect, Test Example 3: rice lamina immersed; for Insecticidal effect, Test Example 3 / Insecticidal effect on rice leafroller (Test Example 3), judged grade: four days after inoculation; for Insecticidal effect (Test Example 3), judged from mortality / Insecticidal effect on rice leafroller (Test Example 3), judged grade: rice lamina dip; for Insecticidal effect (Test Example 3), judged from mortality: 4 days after inoculation; for Insecticidal effect on rice leafroller (Test Example 3), judged grade: third-instar larvae
Experimental: Insecticidal effect on rice leafroller (Cnaphalocrocis medinalis)
After air-drying, the lamina was placed in a plastic Petri dish with a diameter of 9 cm whose bottom had been covered with a wetted filter paper. The lamina was inoculated with third-instar larvae of rice leafroller, after which the dish was allowed to stand in a room thermostated at 25° C. and having a humidity of 70%. Four days after the inoculation, the dead and alive were counted and the insecticidal effect was judged according to the criterion shown in Test Example 1. The test was carried out with triplicate groups of 10 insects.

[3] = judged by the mortality criterion of Test Example 1
[4] = third-instar larvae of rice leafroller
[5] = mortality judged by criterion of Test Example 1
[6] = rice leafroller third-instar larvae

Cc1ccc(Cl)cc1NC(=O)c1ccccc1C(=O)NC(C)C [compound 51]
Insecticidal effect, Test Example 1 [1, 3]: A (100) | Insecticidal effect, Test Example 3 [2, 4]: A (100)

Cc1cc(C#Cc2ccccc2)ccc1NC(=O)c1cccc(Cl)c1C(=O)NC(C)C [compound 1325]
Insecticidal effect, Test Example 1 [1, 5]: A (100) | Insecticidal effect, Test Example 3 [2, 6]: A (100)

CCCc1cc(I)ccc1NC(=O)c1cccc(I)c1C(=O)NC(C)C [compound 952]
Insecticidal effect, Test Example 1 [1, 5]: A (100) | Insecticidal effect, Test Example 3 [2, 6]: A (100)

CC(C)NC(=O)c1cccc(I)c1C(=O)Nc1ccc(SCC(F)(F)F)cc1 [compound 420]
Insecticidal effect, Test Example 1 [1, 3]: A (100) | Insecticidal effect, Test Example 3 [2, 4]: D (79-50)

CCN(CC)C(=O)c1c(F)cccc1C(=O)Nc1ccc(OC(F)(F)F)cc1C [compound 1527]
Insecticidal effect (Test Example 1), judged from mortality [1]: A (100) | Insecticidal effect (Test Example 3), judged from mortality [2, 4]: A (100)

CC(C)NC(=O)c1c(C(=O)Nc2ccc(C(F)(F)C(F)(F)C(F)(F)C(F)(F)F)cc2)cccc1[N+](=O)[O-] [compound 611]
Insecticidal effect on diamondback moth (Test Example 1), judged grade [1]: A (100) | Insecticidal effect on rice leafroller (Test Example 3), judged grade [2]: A (100)

CC(C)NC(=O)c1ccccc1C(=O)Nc1ccc(C(F)(F)F)cc1 [compound 25]
Insecticidal effect, Test Example 1 [1, 3]: A (100) | Insecticidal effect, Test Example 3 [2, 4]: A (100)

Cc1cc(Cl)ccc1NC(=O)c1c(F)ccc(F)c1C(=O)NC(C)C [compound 582]
Insecticidal effect on diamondback moth (Test Example 1), judged grade [1]: A (100) | Insecticidal effect on rice leafroller (Test Example 3), judged grade [2]: A (100)

CCNC(=O)c1c(F)cccc1C(=O)Nc1ccc(C(F)(F)C(F)(F)F)cc1F [compound 1510]
Insecticidal effect (Test Example 1), judged from mortality [1]: A (100) | Insecticidal effect (Test Example 3), judged from mortality [2, 4]: A (100)

CCCNC(=O)c1c(I)cccc1C(=O)Nc1cccc(Cl)c1C [compound 959]
Insecticidal effect, Test Example 1 [1, 5]: A (100) | Insecticidal effect, Test Example 3 [2, 6]: A (100)

Cc1cc(C(F)(F)C(F)(F)F)ccc1NC(=O)c1cccc(Cl)c1C(=O)NC1CCCO1 (stereo not shown) [compound 1392]
Insecticidal effect, Test Example 1 [1, 5]: A (100) | Insecticidal effect, Test Example 3 [2, 6]: A (100)

CC(C)NC(=O)c1ccc(Cl)cc1C(=O)Nc1ccc(F)c(F)c1 [compound 188]
Insecticidal effect, Test Example 1 [1, 3]: D (79-50) | Insecticidal effect, Test Example 3 [2, 4]: D (79-50)

CCNC(=O)c1cccc(I)c1C(=O)Nc1ccc(OC(F)(F)C(F)F)cc1C [compound 1057]
Insecticidal effect, Test Example 1 [1, 5]: A (100) | Insecticidal effect, Test Example 3 [2, 6]: A (100)

CCCNC(=O)c1c(Cl)cccc1C(=O)Nc1ccc(C(F)(F)C(F)(F)C(F)(F)F)cc1F [compound 1493]
Insecticidal effect (Test Example 1), judged from mortality [1]: A (100) | Insecticidal effect (Test Example 3), judged from mortality [2, 4]: A (100)

Cc1ccc(Cl)cc1NC(=O)c1cc(OC(F)F)ccc1C(=O)NC(C)C [compound 776]
Insecticidal effect on diamondback moth (Test Example 1), judged grade [1]: B (99-90) | Insecticidal effect on rice leafroller (Test Example 3), judged grade [2]: D (79-50)

CCNC(=O)c1c(Cl)cccc1C(=O)Nc1ccc(C(F)(F)C(F)(F)C(F)(F)F)cc1F [compound 1490]
Insecticidal effect (Test Example 1), judged from mortality [1]: A (100) | Insecticidal effect (Test Example 3), judged from mortality [2, 4]: A (100)

CC(C)CNC(=O)c1ccccc1C(=O)Nc1ccc(C(F)(F)F)cc1 [compound 833]
Insecticidal effect on diamondback moth (Test Example 1), judged grade [1]: A (100) | Insecticidal effect on rice leafroller (Test Example 3), judged grade [2]: D (79-50)

Cc1ccc(F)cc1NC(=O)c1ccccc1C(=O)NC(C)C [compound 53]
Insecticidal effect, Test Example 1 [1, 3]: A (100) | Insecticidal effect, Test Example 3 [2, 4]: A (100)

Cc1ccc(Cl)cc1NC(=O)c1ccc(Cl)cc1C(=O)NC(C)C [compound 178]
Insecticidal effect, Test Example 1 [1, 3]: A (100) | Insecticidal effect, Test Example 3 [2, 4]: A (100)

CCN(Cc1ccccc1)C(=O)c1c(Cl)cccc1C(=O)Nc1ccc(C(F)(F)C(F)(F)F)cc1C [compound 1457]
Insecticidal effect (Test Example 1), judged from mortality [1]: A (100) | Insecticidal effect (Test Example 3), judged from mortality [2, 4]: A (100)

CC(C)NC(=O)c1cccc(Cl)c1C(=O)Nc1ccc(Cl)cc1Cl [compound 209]
Insecticidal effect, Test Example 1 [1, 3]: A (100) | Insecticidal effect, Test Example 3 [2, 4]: B (99-90)

Cc1cc(C(F)(F)C(F)(F)F)ccc1NC(=O)c1c(I)cccc1C(=O)NC(C)CO (stereo not shown) [compound 1465]
Insecticidal effect (Test Example 1), judged from mortality [1]: A (100) | Insecticidal effect (Test Example 3), judged from mortality [2, 4]: A (100)

Cc1cc(OCc2ccc(Cl)cc2)ccc1NC(=O)c1ccccc1C(=O)NC(C)C [compound 76]
Insecticidal effect, Test Example 1 [1, 3]: C (89-80) | Insecticidal effect, Test Example 3 [2, 4]: B (99-90)

CC(C)NC(=O)c1cccc(I)c1C(=O)Nc1ccc(OC(F)(F)F)cc1Br [compound 466]
Insecticidal effect on diamondback moth (Test Example 1), judged grade [1]: A (100) | Insecticidal effect on rice leafroller (Test Example 3), judged grade [2]: A (100)

Cc1cc(C(F)(F)C(F)(F)F)ccc1NC(=O)c1cccc(Cl)c1C(=O)NCc1ccncc1 [compound 1394]
Insecticidal effect, Test Example 1 [1, 5]: A (100) | Insecticidal effect, Test Example 3 [2, 6]: A (100)

Cc1cccc(NC(=O)c2cccc([N+](=O)[O-])c2C(=O)NC(C)C)c1C [compound 647]
Insecticidal effect on diamondback moth (Test Example 1), judged grade [1]: A (100) | Insecticidal effect on rice leafroller (Test Example 3), judged grade [2]: B (99-90)

Cc1cc(C(F)(F)C(F)(F)F)ccc1NC(=O)c1ccc(Br)c(Br)c1C(=O)NC(C)C [compound 1266]
Insecticidal effect, Test Example 1 [1, 5]: A (100) | Insecticidal effect, Test Example 3 [2, 6]: A (100)

Cc1cc(OC(F)(F)C(F)F)c(Cl)cc1NC(=O)c1cccc([N+](=O)[O-])c1C(=O)NC(C)C [compound 718]
Insecticidal effect on diamondback moth (Test Example 1), judged grade [1]: A (100) | Insecticidal effect on rice leafroller (Test Example 3), judged grade [2]: A (100)

CC(C)NC(=O)c1c(F)cccc1C(=O)Nc1ccc(OC(F)(F)F)cc1 [compound 475]
Insecticidal effect on diamondback moth (Test Example 1), judged grade [1]: A (100) | Insecticidal effect on rice leafroller (Test Example 3), judged grade [2]: D (79-50)

CCN(CC)C(=O)c1c(C(=O)Nc2ccc(C(F)(F)C(F)(F)F)cc2F)cccc1[N+](=O)[O-] [compound 1134]
Insecticidal effect, Test Example 1 [1, 5]: A (100) | Insecticidal effect, Test Example 3 [2, 6]: A (100)

Cc1cc(SC(C)C)ccc1NC(=O)c1cccc(F)c1C(=O)NC(C)C [compound 518]
Insecticidal effect on diamondback moth (Test Example 1), judged grade [1]: A (100) | Insecticidal effect on rice leafroller (Test Example 3), judged grade [2]: B (99-90)

CCN(CC)C(=O)c1c(C(=O)Nc2ccc(OC(F)(F)F)cc2C)ccc(F)c1F [compound 1285]
Insecticidal effect, Test Example 1 [1, 5]: A (100) | Insecticidal effect, Test Example 3 [2, 6]: A (100)

Cc1cc(C(F)(F)C(F)(F)F)ccc1NC(=O)c1c(I)cccc1C(=O)NC(C)c1ccccn1 (stereo not shown) [compound 1778]
Insecticidal effect (Test Example 1), judged from mortality [1]: A (100) | Insecticidal effect (Test Example 3), judged from mortality [2, 4]: A (100)

CCc1ccccc1NC(=O)c1cccc([N+](=O)[O-])c1C(=O)NC(C)C [compound 602]
Insecticidal effect on diamondback moth (Test Example 1), judged grade [1]: A (100) | Insecticidal effect on rice leafroller (Test Example 3), judged grade [2]: A (100)

Cc1cc(OCC(F)(F)F)ccc1NC(=O)c1cccc([N+](=O)[O-])c1C(=O)NC(C)C [compound 697]
Insecticidal effect on diamondback moth (Test Example 1), judged grade [1]: A (100) | Insecticidal effect on rice leafroller (Test Example 3), judged grade [2]: A (100)

CC(C)NC(=O)c1c(I)cccc1C(=O)Nc1ccc(Br)cc1C(F)(F)C(F)(F)F [compound 1409]
Insecticidal effect, Test Example 1 [1, 5]: A (100) | Insecticidal effect, Test Example 3 [2, 6]: A (100)

Cc1ccc(Cl)cc1NC(=O)c1c(F)cccc1C(=O)NC(C)C [compound 546]
Insecticidal effect on diamondback moth (Test Example 1), judged grade [1]: A (100) | Insecticidal effect on rice leafroller (Test Example 3), judged grade [2]: A (100)

CC(C)NC(=O)c1cccc(Cl)c1C(=O)Nc1ccc(OC(F)(F)F)cc1Cl [compound 234]
Insecticidal effect, Test Example 1 [1, 3]: A (100) | Insecticidal effect, Test Example 3 [2, 4]: A (100)

Cc1cc(Cl)ccc1NC(=O)c1cccc(OC(F)F)c1C(=O)NC(C)C [compound 772]
Insecticidal effect on diamondback moth (Test Example 1), judged grade [1]: A (100) | Insecticidal effect on rice leafroller (Test Example 3), judged grade [2]: A (100)

Cc1cc(OC(F)F)ccc1NC(=O)c1cccc(C)c1C(=O)NC(C)C [compound 751]
Insecticidal effect on diamondback moth (Test Example 1), judged grade [1]: A (100) | Insecticidal effect on rice leafroller (Test Example 3), judged grade [2]: A (100)

CCC(C)CNC(=O)c1c(I)cccc1C(=O)Nc1ccc(C(F)(F)C(F)(F)F)cc1C (stereo not shown) [compound 1026]
Insecticidal effect, Test Example 1 [1, 5]: A (100) | Insecticidal effect, Test Example 3 [2, 6]: A (100)

C#CCNC(=O)c1c(I)cccc1C(=O)Nc1ccc(OC(F)F)cc1C [compound 1456]
Insecticidal effect (Test Example 1), judged from mortality [1]: A (100) | Insecticidal effect (Test Example 3), judged from mortality [2, 4]: A (100)

CC(C)NC(=O)c1ccccc1C(=O)Nc1ccc(SC(F)(F)F)cc1 [compound 995]
Insecticidal effect, Test Example 1 [1, 5]: A (100) | Insecticidal effect, Test Example 3 [2, 6]: A (100)

Cc1cc(OC(F)(F)C(F)C(F)(F)F)ccc1NC(=O)c1c(I)cccc1C(=O)NC(C)C (stereo not shown) [compound 456]
Insecticidal effect on diamondback moth (Test Example 1), judged grade [1]: A (100) | Insecticidal effect on rice leafroller (Test Example 3), judged grade [2]: A (100)

CCN(CC)C(=O)c1c(F)cccc1C(=O)Nc1ccc(OC(F)(F)C(F)F)cc1C [compound 1529]
Insecticidal effect (Test Example 1), judged from mortality [1]: A (100) | Insecticidal effect (Test Example 3), judged from mortality [2, 4]: A (100)

Cc1cccc(CNC(=O)c2c(Cl)cccc2C(=O)Nc2ccc(C(F)(F)C(F)(F)F)cc2C)c1 [compound 1339]
Insecticidal effect, Test Example 1 [1, 5]: A (100) | Insecticidal effect, Test Example 3 [2, 6]: A (100)

Cc1cc(F)ccc1NC(=O)c1c(I)cccc1C(=O)NC(C)C [compound 432]
Insecticidal effect, Test Example 1 [1, 3]: A (100) | Insecticidal effect, Test Example 3 [2, 4]: A (100)
